pIC50: −log10 of the molar value. Like-named read-outs stand apart in the source and are kept apart here.
How the values were obtained:
hT2R75 = hT2R75 (Homo sapiens (Human), UniProt P59540); test: hT2R panel inhibition, transient HEK293 G16g44, agonist Strychnine 1 μM; assay type: cell-based; conditions: HEK293, read-out: screening result against bitter receptor 75, compound at 25 μM; receptor activated to EC80 with the corresponding agonist
hT2R14 [1] = target: T1, hT2R14 (Homo sapiens (Human), UniProt Q9NYV8); test: hT2R panel inhibition, transient HEK293 G16g44, agonist Aristolochic Acid 2 μM; assay type: cell-based; conditions: HEK293, compound at 25 μM; receptor activated to EC80 with the corresponding agonist; read-out: screening result against bitter receptor 14
T1 sequence (Q9NYV8 whole entry): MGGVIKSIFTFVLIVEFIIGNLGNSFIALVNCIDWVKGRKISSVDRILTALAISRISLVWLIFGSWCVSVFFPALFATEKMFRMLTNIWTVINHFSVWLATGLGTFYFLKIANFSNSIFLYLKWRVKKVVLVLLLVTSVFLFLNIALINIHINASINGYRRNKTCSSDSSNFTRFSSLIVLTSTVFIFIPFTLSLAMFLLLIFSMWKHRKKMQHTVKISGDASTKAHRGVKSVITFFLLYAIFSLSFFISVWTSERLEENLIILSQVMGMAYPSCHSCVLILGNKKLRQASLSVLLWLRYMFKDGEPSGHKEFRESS
How it was run: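 Each hT2R was transiently transfected into HEK293 cells stably expressing G16g44 and assayed functionally for inhibition of agonist response. Agonists were applied at EC80: andrographolide at 0.5 mM for hT2R8 and aristolochic acid at 2 μM for hT2R14.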

hT2R4 = hT2R4 (Homo sapiens (Human), UniProt Q9NYW5); test: hT2R panel inhibition, transient HEK293 G16g44, agonist Chloroquine pH6.5 5 mM; assay type: cell-based; conditions: HEK293, compound at 25 μM; receptor activated to EC80 with the corresponding agonist; class symbols; read-out: screening result against bitter receptor 4
Sequence of hT2R4 (Q9NYW5 whole entry): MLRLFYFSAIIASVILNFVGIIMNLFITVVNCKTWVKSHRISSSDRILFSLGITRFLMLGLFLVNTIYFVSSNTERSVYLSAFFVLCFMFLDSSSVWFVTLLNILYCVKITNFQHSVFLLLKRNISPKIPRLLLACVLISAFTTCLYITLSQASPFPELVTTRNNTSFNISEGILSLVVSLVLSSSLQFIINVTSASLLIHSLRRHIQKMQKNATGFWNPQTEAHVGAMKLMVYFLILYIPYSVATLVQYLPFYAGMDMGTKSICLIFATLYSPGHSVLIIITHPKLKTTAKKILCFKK
How it was run: (§1)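 Each human T2R transiently transfected into HEK293 cells stably expressing G16g44; functional receptor assays run with the listed bitter agonist at EC80 concentration. Inhibition recorded as reduction of agonist-induced receptor activity in presence of Compound C.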

hT2R9 = hT2R9 (Homo sapiens (Human), UniProt Q9NYW1); test: hT2R panel inhibition, transient HEK293 G16g44, agonist Ofloxacin 1 mM; assay type: cell-based; conditions: HEK293, compound at 25 μM; receptor activated to EC80 with the corresponding agonist; read-out: screening result against bitter receptor 9
Sequence of hT2R9 (Q9NYW1 whole entry): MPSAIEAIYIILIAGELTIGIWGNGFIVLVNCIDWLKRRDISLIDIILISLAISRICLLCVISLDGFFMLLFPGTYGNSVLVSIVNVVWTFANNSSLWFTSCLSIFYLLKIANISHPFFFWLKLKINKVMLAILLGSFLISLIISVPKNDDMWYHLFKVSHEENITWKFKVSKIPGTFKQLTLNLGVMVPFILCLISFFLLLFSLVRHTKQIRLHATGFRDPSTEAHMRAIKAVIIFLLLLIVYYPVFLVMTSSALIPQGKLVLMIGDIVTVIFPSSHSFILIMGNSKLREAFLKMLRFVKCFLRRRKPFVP
Experimental: Specifically, in order to evaluate the inhibitory selectivity of the Compound C compound, this compound was tested against 22 human T2Rs which were deorphaned by Senomyx. These receptors and the bitter ligands that activate these human T2Rs are reported in earlier patent applications which are incorporated by reference herein. These 22 human T2Rs are hT2R1, 3, 4, 5, 7, 8, 9, 10, 13, 14, 16, 44, 51, 54, 55, 61, 63, 64, 65, 67, 71 and 75. The amino acid and nucleic acid sequences of all of these T2Rs may be found in these earlier patent applications. These human T2Rs were each individually transiently transfected into HEK293 cells that stably express the promiscuous G protein G16g44 and functional assays were effected using these receptors as disclosed in these same patent applications. […] The ligands were used at EC80 concentration levels. The list of bitter ligands utilized and the tested ligand concentrations are contained in Table 5 of this example.
Relating to the foregoing, FIG. 5 contains experimental results wherein Compound C was tested with different agonist compounds. The inhibition activity is represented by the reduction of receptor activity in the presence of Compound C. […] These 13 hT2Rs are hT2R3, 7, 10, 14, 16, 44, 51, 55, 61, 63, 64, 65, and 71.

hT2R5 = hT2R5 (Homo sapiens (Human), UniProt Q9NYW4); test: hT2R panel inhibition, transient HEK293 G16g44, agonist Picoline 10 mM; assay type: cell-based; conditions: HEK293, compound at 25 μM; receptor activated to EC80 with the corresponding agonist; read-out: screening result against bitter receptor 5
Sequence of hT2R5 (Q9NYW4 whole entry): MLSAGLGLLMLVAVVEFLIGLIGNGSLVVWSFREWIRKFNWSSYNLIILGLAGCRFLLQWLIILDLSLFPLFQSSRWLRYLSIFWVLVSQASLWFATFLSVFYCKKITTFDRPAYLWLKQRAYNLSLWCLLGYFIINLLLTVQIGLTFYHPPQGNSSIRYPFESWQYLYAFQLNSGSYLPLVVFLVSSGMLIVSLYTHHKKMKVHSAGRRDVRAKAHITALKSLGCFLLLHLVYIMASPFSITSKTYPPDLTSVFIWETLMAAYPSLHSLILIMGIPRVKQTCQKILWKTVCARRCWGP
How it was run: as §1

hT2R71 = hT2R71 (Homo sapiens (Human), UniProt P59536); test: hT2R panel inhibition, transient HEK293 G16g44, agonist Picric Acid 10 μM; assay type: cell-based; conditions: HEK293, compound at 25 μM; receptor activated to EC80 with the corresponding agonist; read-out: screening result against bitter receptor 71
Sequence of hT2R71 (P59536 whole entry): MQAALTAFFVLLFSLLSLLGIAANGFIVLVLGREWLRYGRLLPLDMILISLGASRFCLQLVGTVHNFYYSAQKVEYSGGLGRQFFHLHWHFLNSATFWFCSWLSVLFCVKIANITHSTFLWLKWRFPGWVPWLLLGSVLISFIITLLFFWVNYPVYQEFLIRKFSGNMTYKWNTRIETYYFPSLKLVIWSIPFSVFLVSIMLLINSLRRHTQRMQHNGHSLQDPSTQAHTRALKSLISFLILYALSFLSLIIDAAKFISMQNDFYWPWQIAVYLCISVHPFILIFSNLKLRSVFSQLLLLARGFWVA
How it was run: as §1

hT2R63 = test: hT2R panel inhibition, transient HEK293 G16g44, agonist Caffeine 1 mM or Andrographolide 100 μM; assay type: cell-based, human; conditions: compound at 25 μM; receptor activated to EC80 with the corresponding agonist
How it was run: as §1

hT2R64 = hT2R64 (Homo sapiens (Human), UniProt P59538); test: hT2R panel inhibition, transient HEK293 G16g44, agonist Aristolochic Acid 1 μM; assay type: cell-based; conditions: HEK293, compound at 25 μM; receptor activated to EC80 with the corresponding agonist; read-out: screening result against bitter receptor 64
Sequence of hT2R64 (P59538 whole entry): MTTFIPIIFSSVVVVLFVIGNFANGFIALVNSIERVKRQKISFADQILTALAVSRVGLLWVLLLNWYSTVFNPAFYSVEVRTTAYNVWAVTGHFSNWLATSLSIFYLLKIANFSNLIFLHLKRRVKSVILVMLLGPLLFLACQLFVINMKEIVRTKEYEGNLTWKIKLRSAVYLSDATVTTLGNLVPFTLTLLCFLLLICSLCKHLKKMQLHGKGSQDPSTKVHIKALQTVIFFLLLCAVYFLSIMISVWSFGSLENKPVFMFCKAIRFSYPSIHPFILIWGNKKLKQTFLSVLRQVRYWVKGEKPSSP
How it was run: as §1

hT2R7 = hT2R7 (Homo sapiens (Human), UniProt Q9NYW3); test: hT2R panel inhibition, transient HEK293 G16g44, agonist Chloroquine pH6.5 10 mM; assay type: cell-based; conditions: HEK293, compound at 25 μM; receptor activated to EC80 with the corresponding agonist; read-out: screening result against bitter receptor 7
Sequence of hT2R7 (Q9NYW3 whole entry): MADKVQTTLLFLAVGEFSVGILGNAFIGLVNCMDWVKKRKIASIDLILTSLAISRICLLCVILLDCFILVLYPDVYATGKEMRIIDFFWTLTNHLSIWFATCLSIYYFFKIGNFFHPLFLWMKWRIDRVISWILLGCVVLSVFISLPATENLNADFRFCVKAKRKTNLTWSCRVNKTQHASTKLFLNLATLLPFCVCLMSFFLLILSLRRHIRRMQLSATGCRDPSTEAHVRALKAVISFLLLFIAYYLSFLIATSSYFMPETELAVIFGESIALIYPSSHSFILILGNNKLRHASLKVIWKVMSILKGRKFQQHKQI
How it was run: as §1

hT2R55 = test: hT2R panel inhibition, transient HEK293 G16g44, agonist Cinchonine 150 μM; assay type: cell-based, human; conditions: compound at 25 μM; receptor activated to EC80 with the corresponding agonist
How it was run: as §1

hT2R14 [2] = target: T1, hT2R14; test: hT2R14 antagonist high-throughput FLIPR assay, stable cell line with G16g44, agonist aristolochic acid; assay type: cell-based
How it was run: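 HEK293 cells stably expressing hT2R14 with chimeric G16g44 were stimulated with aristolochic acid (3 μM), giving 70-80% of maximal receptor activity. Test compounds were added together with the agonist, and antagonism was read as fluorescent calcium signal on FLIPR.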

hT2R16 = hT2R16 (Homo sapiens (Human), UniProt Q9NYV7); test: hT2R panel inhibition, transient HEK293 G16g44, agonist Salicin 1 mM; assay type: cell-based; conditions: HEK293, compound at 25 μM; receptor activated to EC80 with the corresponding agonist; read-out: screening result against bitter receptor 16
Sequence of hT2R16 (Q9NYV7 whole entry): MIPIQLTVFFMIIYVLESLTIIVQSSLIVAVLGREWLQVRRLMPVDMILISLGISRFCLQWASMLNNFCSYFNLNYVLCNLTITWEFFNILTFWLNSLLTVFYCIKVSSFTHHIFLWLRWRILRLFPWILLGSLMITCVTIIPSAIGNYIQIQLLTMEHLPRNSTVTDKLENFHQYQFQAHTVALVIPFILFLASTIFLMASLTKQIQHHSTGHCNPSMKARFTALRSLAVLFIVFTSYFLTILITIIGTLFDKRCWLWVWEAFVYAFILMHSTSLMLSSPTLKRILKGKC
How it was run: as §1

hT2R10 = hT2R10 (Homo sapiens (Human), UniProt Q9NYW0); test: hT2R panel inhibition, transient HEK293 G16g44, agonist Strychnine 50 μM; assay type: cell-based; conditions: HEK293, read-out: screening result against bitter receptor 10, compound at 25 μM; receptor activated to EC80 with the corresponding agonist
Sequence of hT2R10 (Q9NYW0 whole entry): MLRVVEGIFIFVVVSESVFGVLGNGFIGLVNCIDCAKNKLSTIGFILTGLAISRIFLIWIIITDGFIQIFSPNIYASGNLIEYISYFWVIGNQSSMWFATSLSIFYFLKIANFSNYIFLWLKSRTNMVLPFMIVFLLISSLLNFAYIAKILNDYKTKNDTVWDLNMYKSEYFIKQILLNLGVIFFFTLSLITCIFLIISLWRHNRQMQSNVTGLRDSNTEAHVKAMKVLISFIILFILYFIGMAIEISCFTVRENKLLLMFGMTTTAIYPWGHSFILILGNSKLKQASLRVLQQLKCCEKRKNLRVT

hT2R65 = test: hT2R panel inhibition, transient HEK293 G16g44, agonist Oleuropein 1 mM; assay type: cell-based, human; conditions: compound at 25 μM; receptor activated to EC80 with the corresponding agonist
How it was run: as §1

hT2R44 = test: hT2R panel inhibition, transient HEK293 G16g44, agonist Denatonium 0.5 μM; assay type: cell-based, human; conditions: compound at 25 μM; receptor activated to EC80 with the corresponding agonist
How it was run: as §1

hT2R61 = hT2R61 (Homo sapiens (Human), UniProt P59537); test: hT2R panel inhibition, transient HEK293 G16g44, agonist Aristolochic Acid 25 nM; assay type: cell-based; conditions: HEK293, compound at 25 μM; receptor activated to EC80 with the corresponding agonist; read-out: screening result against bitter receptor 61
Sequence of hT2R61 (P59537 whole entry): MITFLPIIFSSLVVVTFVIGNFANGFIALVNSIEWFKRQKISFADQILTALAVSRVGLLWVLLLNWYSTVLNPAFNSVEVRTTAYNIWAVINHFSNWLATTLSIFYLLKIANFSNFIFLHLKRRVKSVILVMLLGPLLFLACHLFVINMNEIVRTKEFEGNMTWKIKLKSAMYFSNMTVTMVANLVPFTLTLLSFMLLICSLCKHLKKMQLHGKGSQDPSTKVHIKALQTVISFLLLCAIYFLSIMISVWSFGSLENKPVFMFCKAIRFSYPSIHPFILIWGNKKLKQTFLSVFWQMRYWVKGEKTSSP
How it was run: as §1

hT2R67 = test: hT2R panel inhibition, transient HEK293 G16g44, agonist Andrographolide 5 μM; assay type: cell-based, human; conditions: compound at 25 μM; receptor activated to EC80 with the corresponding agonist
How it was run: as §1

hT2R3 = hT2R3 (Homo sapiens (Human), UniProt Q9NYW6); test: hT2R panel inhibition, transient HEK293 G16g44, agonist Chloroquine pH6.5 50 μM; assay type: cell-based; conditions: HEK293, compound at 25 μM; receptor activated to EC80 with the corresponding agonist; read-out: screening result against bitter receptor 3
Sequence of hT2R3 (Q9NYW6 whole entry): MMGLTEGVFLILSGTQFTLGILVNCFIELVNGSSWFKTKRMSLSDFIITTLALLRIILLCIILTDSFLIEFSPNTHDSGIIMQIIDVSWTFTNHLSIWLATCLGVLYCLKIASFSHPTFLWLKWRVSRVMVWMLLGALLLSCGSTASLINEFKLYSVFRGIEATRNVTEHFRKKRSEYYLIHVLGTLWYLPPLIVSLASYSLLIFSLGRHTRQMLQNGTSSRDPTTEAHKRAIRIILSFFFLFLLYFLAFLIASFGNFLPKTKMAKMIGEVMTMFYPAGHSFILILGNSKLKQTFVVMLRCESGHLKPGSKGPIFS
How it was run: as §1

hT2R54 = test: hT2R panel inhibition, transient HEK293 G16g44, agonist Ranitidine 5 mM; assay type: cell-based, human; conditions: compound at 25 μM; receptor activated to EC80 with the corresponding agonist
How it was run: as §1

hT2R51 = hT2R51 (Homo sapiens (Human), UniProt P59533); test: hT2R panel inhibition, transient HEK293 G16g44, agonist Prop 2.5 μM; assay type: cell-based; conditions: HEK293, compound at 25 μM; receptor activated to EC80 with the corresponding agonist; read-out: screening result against bitter receptor 51
Sequence of hT2R51 (P59533 whole entry): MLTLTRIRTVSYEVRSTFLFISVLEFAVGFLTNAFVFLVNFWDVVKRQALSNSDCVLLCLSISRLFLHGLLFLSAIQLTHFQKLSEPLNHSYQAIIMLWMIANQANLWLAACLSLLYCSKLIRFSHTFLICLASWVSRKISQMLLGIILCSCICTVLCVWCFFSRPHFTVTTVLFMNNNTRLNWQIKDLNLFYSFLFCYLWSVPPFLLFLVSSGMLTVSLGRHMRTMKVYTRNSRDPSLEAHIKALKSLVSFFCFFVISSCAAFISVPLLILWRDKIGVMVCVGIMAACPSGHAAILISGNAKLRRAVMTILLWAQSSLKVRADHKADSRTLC
How it was run: as §1

Sequence of hT2R75 (P59540 whole entry): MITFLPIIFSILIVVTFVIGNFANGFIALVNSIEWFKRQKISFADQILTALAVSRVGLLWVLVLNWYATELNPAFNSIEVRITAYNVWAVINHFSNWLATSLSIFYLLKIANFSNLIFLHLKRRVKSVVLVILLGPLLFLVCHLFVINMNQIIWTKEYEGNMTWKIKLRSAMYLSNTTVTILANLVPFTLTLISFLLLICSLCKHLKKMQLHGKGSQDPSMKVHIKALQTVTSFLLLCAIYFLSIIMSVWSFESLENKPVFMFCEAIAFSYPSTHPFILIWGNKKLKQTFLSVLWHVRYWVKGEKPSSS

Row | Compound | inhibition at 25 µM (hT2R75) | inhibition at 25 µM (hT2R14 [1]) | inhibition at 25 µM (hT2R4) | inhibition at 25 µM (hT2R9) | inhibition at 25 µM (hT2R5) | inhibition at 25 µM (hT2R71) | screening result against bitter receptor 63 (hT2R63) | inhibition at 25 µM (hT2R64) | inhibition at 25 µM (hT2R7) | screening result against bitter receptor 55 (hT2R55) | inhibition at 25 µM (hT2R16) | inhibition at 25 µM (hT2R10) | screening result against bitter receptor 65 (hT2R65) | screening result against bitter receptor 44 (hT2R44) | inhibition at 25 µM (hT2R61) | screening result against bitter receptor 67 (hT2R67) | inhibition at 25 µM (hT2R3) | screening result against bitter receptor 54 (hT2R54) | pIC50 (hT2R14 [2]; Table C, read-out: hT2R14 IC50) | inhibition at 25 µM (hT2R51) | other results
1 | Cc1ccc(S(=O)(=O)N(Cc2ccccc2)CC2CCC(C(=O)O)CC2)cc1 (stereo not shown) [Example 5-11, 4-((N-benzyl-4-methylphenylsulfonamido)methyl)cyclohexane-carboxylic acid] | 40 to 60% | > 80% | 60 to 80% | 20 to 40% | 20 to 40% | 60 to 80% | +++ (60% to 80% inhibition = +++) | 40 to 60% | 40 to 60% | ++++ (80% or greater inhibition = ++++) | 40 to 60% | 40 to 60% | + (20% to 40% inhibition = +) | +++ (60% to 80% inhibition = +++) | > 80% | + (20% to 40% inhibition = +) | 60 to 80% |  |  |  | pIC50 (hT2R14 [2]; read-out: IC50 on hT2R14 bitter receptor): 7.85
2 | COc1ccc(CN(Cc2ccccc2)S(=O)(=O)Cc2ccc(C(=O)O)cc2)cc1 [Example 5-16, 4-((N-benzyl-N-(4-methoxybenzyl)sulfamoyl)methyl)benzoic acid] | 20 to 40% | 20 to 40% | 20 to 40% | 20 to 40% | 20 to 40% | 40 to 60% |  | > 80% | 20 to 40% | ++++ (80% or greater inhibition = ++++) | 20 to 40% | 20 to 40% | + (20% to 40% inhibition = +) | +++ (60% to 80% inhibition = +++) | 60 to 80% |  | 40 to 60% |  |  |  | 
3 | COc1ccccc1CN(Cc1ccc(C(=O)O)cc1)S(=O)(=O)c1ccccc1 [Example 5-100, 4-((N-(2-methoxybenzyl)phenylsulfonamido)methyl) benzoic acid] | 20 to 40% | 40 to 60% | 40 to 60% | 20 to 40% | 20 to 40% | 60 to 80% | + (20% to 40% inhibition = +) | > 80% | 20 to 40% | +++ (60% to 80% inhibition = +++) | 20 to 40% | 20 to 40% | ++ (40% to 60% inhibition = ++) | +++ (60% to 80% inhibition = +++) | 60 to 80% |  | 20 to 40% | + (20% to 40% inhibition = +) | 5.89 |  | 
4 | COc1cccc(CN(Cc2ccc(C(=O)O)cc2)S(=O)(=O)c2ccccc2)c1 [Example 5-101, 4-((N-(3-methoxybenzyl)phenylsulfonamido)methyl) benzoic acid] | 40 to 60% | > 80% | 40 to 60% | 20 to 40% | 40 to 60% | 60 to 80% | +++ (60% to 80% inhibition = +++) | > 80% | 60 to 80% | +++ (60% to 80% inhibition = +++) | 40 to 60% | 60 to 80% | +++ (60% to 80% inhibition = +++) | +++ (60% to 80% inhibition = +++) | > 80% | ++ (40% to 60% inhibition = ++) | 60 to 80% | ++ (40% to 60% inhibition = ++) | 6.46 | 40 to 60% | 
5 | O=C(O)c1ccc(CN(Cc2cccc(F)c2)S(=O)(=O)c2ccccc2)cc1 [Example 5-104, 4-((N-(3-fluorobenzyl)phenylsulfonamido)methyl)-benzoic acid] | 40 to 60% | > 80% | 40 to 60% | 20 to 40% | 40 to 60% | 60 to 80% | ++ (40% to 60% inhibition = ++) | > 80% | 40 to 60% | +++ (60% to 80% inhibition = +++) | 20 to 40% | 40 to 60% | +++ (60% to 80% inhibition = +++) | +++ (60% to 80% inhibition = +++) | > 80% | ++ (40% to 60% inhibition = ++) | 40 to 60% | + (20% to 40% inhibition = +) | 6.39 | 20 to 40% | 

Source: patent publication US9247759B2, “Identification of human T2R receptors that respond to bitter compounds that elicit the bitter taste in compositions, and the use thereof in assays to identify compounds that inhibit (block) bitter taste in compositions and use thereof” (SENOMYX, INC., priority 2007, dated 2016)
